The source of these data is the NIST ThermoML archive (doi:10.1021/acs.jced.6b00031).

A short description of this data set: wn = mass fraction of the nth substance listed. To be noted: 101.3 kPa, Liquid, Vibrating tube method.

Numbers after ± are expanded uncertainties.

Take `O=C(O)CCCCC(=O)O` [1,6-hexanedioic acid] + CCO: the mass density runs as follows: (283.15 K, w1 = 0.0695) 837.4 ± 0.5 kg/m3; (303.15 K, w1 = 0.1382) 852.3 ± 0.5 kg/m3; (313.15 K, w1 = 0.1853) 870.4 ± 0.5 kg/m3.
With `O=C(O)CCC(=O)O` [butanedioic acid] + CCO, the mass density reads like this: (283.15 K, w1 = 0.0569) 836.8 ± 0.5 kg/m3; (303.15 K, w1 = 0.1084) 843.8 ± 0.5 kg/m3; (313.15 K, w1 = 0.1419) 868.6 ± 0.5 kg/m3.

For orientation: mass density means the mass of a sample divided by its volume.
